These results are taken from patent US20240217989A1, “Heteroaryl Fluoroalkenes As DGK Inhibitors” (Incyte Corporation, priority 2022, published 2024).

The target in one assay is T1, DGKα (Homo sapiens, UniProt P23743).
T1 construct: His; purchased Signal Chem D21-10BH
Description: In vitro DGKα inhibition assay (ADP-Glo). The assay is classed as biochemical. Particulars: His-tagged human recombinant enzyme; 0.1 nM DGKα, 50 μM ATP, 20 μM DLG; 90 minute incubation; ADP-Glo luminescence. A digest of the protocol: (§1)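 His-tagged human recombinant enzymes with DLG lipid substrate (20 μM) in Tris pH 7.5 buffer with MgCl2/CaCl2; DGKα 0.1 nM with 50 μM ATP, DGKζ 0.4 nM with 30 μM ATP.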
On the technique in general: In ADP-Glo the light output rises with the ADP produced.

A further assay deals with DGKζ (Homo sapiens, UniProt Q13574). Briefly: In vitro DGKζ inhibition assay (ADP-Glo). The assay is classed as biochemical. Particulars: His-tagged human recombinant enzyme; 0.4 nM DGKζ, 30 μM ATP, 20 μM DLG; 90 minute incubation; ADP-Glo luminescence. A digest of the protocol: as §1
Chain of DGKζ (Q13574 whole entry): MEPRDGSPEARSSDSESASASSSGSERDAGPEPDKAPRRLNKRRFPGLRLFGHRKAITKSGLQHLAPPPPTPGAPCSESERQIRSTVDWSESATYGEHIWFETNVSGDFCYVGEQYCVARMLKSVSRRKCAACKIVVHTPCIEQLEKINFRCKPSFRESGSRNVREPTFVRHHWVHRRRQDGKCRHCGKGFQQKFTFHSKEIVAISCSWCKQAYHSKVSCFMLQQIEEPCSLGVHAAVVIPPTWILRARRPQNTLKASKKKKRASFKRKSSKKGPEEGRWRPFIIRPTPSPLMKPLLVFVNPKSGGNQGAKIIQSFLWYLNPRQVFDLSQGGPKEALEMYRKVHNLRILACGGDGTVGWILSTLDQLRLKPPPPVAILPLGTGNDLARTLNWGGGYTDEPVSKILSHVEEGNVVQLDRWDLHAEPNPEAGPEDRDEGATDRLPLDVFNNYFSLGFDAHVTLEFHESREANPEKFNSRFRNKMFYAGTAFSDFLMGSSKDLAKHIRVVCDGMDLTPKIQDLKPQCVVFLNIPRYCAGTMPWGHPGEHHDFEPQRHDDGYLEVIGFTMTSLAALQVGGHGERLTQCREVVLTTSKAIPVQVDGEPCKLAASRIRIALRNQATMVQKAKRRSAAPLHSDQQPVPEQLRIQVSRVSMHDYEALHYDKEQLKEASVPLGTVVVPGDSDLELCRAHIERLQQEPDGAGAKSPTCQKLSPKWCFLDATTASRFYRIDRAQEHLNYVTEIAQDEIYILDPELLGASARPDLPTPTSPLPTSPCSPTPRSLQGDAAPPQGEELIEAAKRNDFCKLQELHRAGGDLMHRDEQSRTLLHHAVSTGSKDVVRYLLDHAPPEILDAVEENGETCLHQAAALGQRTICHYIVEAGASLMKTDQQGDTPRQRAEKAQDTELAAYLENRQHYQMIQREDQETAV

One may read the IC50 as the point on the concentration scale where inhibition reaches its midpoint.

T1 sequence (P23743 whole entry): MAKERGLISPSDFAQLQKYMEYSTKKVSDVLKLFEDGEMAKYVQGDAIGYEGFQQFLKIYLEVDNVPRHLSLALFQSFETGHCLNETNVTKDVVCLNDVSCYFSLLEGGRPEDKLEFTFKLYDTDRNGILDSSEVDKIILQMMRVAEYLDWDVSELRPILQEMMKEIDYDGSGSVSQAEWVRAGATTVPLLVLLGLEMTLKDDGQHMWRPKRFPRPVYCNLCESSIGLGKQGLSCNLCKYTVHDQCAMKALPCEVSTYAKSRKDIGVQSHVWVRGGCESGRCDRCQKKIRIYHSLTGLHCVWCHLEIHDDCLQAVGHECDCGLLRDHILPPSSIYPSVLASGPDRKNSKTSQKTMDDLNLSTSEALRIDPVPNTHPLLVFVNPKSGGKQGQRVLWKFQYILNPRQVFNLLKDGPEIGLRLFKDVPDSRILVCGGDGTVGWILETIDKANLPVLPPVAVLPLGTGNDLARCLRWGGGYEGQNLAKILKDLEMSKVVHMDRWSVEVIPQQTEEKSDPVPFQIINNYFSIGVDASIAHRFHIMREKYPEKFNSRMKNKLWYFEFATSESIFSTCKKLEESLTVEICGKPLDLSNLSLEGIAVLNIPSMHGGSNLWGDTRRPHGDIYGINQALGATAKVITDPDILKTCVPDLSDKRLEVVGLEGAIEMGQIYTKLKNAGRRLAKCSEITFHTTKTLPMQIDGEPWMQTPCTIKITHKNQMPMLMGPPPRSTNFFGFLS

Take `COCCN1CCC2(CC1)CN(c1c(/C=C(\F)c3cncc(-c4ccnnc4)n3)ccc(Oc3ccccc3)c1C(F)(F)F)CCO2` [Example 11, (Z)-4-(6-(2-Fluoro-2-(6-(pyridazin-4-yl)pyrazin-2-yl)vinyl)-3-phenoxy-2-(trifluoromethyl)phenyl)-9-(2-methoxyethyl)-1-oxa-4,9-diazaspiro[5.5]undecane]: the values for the IC50 at DGKα and at DGKζ were 0.02 to 0.2 µM and ≤ 0.02 µM, respectively.
